This is an account of results in PMC3397457, “Preclinical Evaluation of Anticancer Efficacy and Pharmacological Properties of FBA-TPQ, a Novel Synthetic Makaluvamine Analog” (Marine Drugs, 2012).

Holding throughout (type): cell-based, human
One experiment relates to Panc-1 cells. Description: Annexin V apoptosis assay/flow cytometry, Panc-1. Particulars: Panc-1, 1 µM, 48 h. As to the method: (§1) The apoptotic cells were detected using a method reported previously. […] In HPAC cells, a 1 µM concentration of FBA-TPQ increased the apoptotic index two-fold higher than that seen in control cells (P < 0.01). […] In the Mia PaCa-2 cells, FBA-TPQ at 1 µM led to a three-fold increase in apoptosis (P < 0.01).
(§2) Following a similar protocol as above, cells in early and late stages of apoptosis were detected using an Annexin V-FITC apoptosis detection kit from BioVision (Mountain View, CA, USA), according to the manufacturer’s protocol. For apoptosis experiments, 2–3 × 10^5 cells were exposed to the test compound (0, 0.1, 0.5 and 1.0 µM) and incubated for 48 h prior to analysis. Cells were collected and washed with serum-free media. Cells were then re-suspended in 500 µL of Annexin V binding buffer followed by addition of 5 µL of Annexin V-FITC and 5 µL of propidium iodide (PI). The samples were incubated in the dark for 5 min at room temperature and analyzed with a Becton Dickinson FACSCalibur instrument (Ex = 488 nm; Em = 530 nm). Cells that were positive for Annexin V-FITC alone (early apoptosis) and Annexin V-FITC and PI (late apoptosis) were counted. The apoptotic index was calculated against the untreated control cells.
Background: Flow cytometry measures light scatter and fluorescence of single cells or particles in a stream.

The test system of experiment [1] is Mia PaCa-2 cells. Description: Cell cycle distribution by flow cytometry, Mia PaCa-2. The settings on record: Mia PaCa-2, 1 µM. As to the method:
(§3) The effects of FBA-TPQ on cell cycle distribution were analyzed using the previously reported methods; its effects appeared to be cell-line-dependent (Figure 2c). […] The differences in the responses of the different cell lines may be related to their expression of p53.
(§4) To determine the effect of FBA-TPQ on the cell cycle, cells (2–3 × 10^5) were exposed to the test compounds (0, 0.1, 0.5 or 1 µM) and incubated for 24 h prior to analysis. Cells were trypsinized, washed with PBS, and fixed in 1.5 mL of 95% ethanol and 0.5 mL of 0.9% saline solution at 4 °C overnight, followed by incubation with RNAse and staining with propidium iodide (Sigma). The DNA content was determined by flow cytometry. The cell cycle distribution was evaluated by comparing with that of the control cells.

In another experiment the test system is HPAC cells. Nature of the experiment: Cell cycle distribution by flow cytometry, HPAC. Particulars: 1 µM. As to the method:
as §3, §4

Experiment [2] relates to Mia PaCa-2 cells. Description: Annexin V apoptosis assay/flow cytometry, Mia PaCa-2. The settings on record: Mia PaCa-2, 1 µM, 48 h. As to the method:
as §1, §2

For `O=C1C(NCc2ccc(F)cc2)=CC2=NCCc3c[nH]c1c32` [FBA-TPQ, 7-(4-fluorobenzylamino)-1,3,4,8-tetrahydropyrrolo[4,3,2-de]quinolin-8(1H)-one], the figures for the “increase in apoptosis vs control cells” value with Panc-1 cells and with Mia PaCa-2 cells [2] were “four-fold” and “three-fold”, respectively. In addition, the cell cycle arrest entry in the experiment with Mia PaCa-2 cells [1] is given as “arrest in the S phase”; with HPAC cells, “arrest in the G2/M phase”.
